For this test, the target named is T1, IL-17A/A (Homo sapiens, UniProt Q16552).
T1 construct: purchased Genscript Z03228
T1 sequence (Q16552 24-155): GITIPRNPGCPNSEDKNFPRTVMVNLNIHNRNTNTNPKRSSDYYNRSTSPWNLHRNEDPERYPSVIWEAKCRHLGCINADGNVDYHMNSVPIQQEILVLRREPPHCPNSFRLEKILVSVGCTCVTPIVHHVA
The test is described as follows: HEK-Blue IL-17A/A inhibition assay (SEAP reporter). It is filed as cell-based. As to conditions: HEK-Blue cells (HEK 293 expressing IL-17RA, IL-17RC, Act1); IL-17A/A stimulation; 20 hours; SEAP read at A630; 4-parameter fit. In outline: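 IC50 from a 4-parameter fit of SEAP signal (Quanti-Blue, A630) after 20 h co-incubation of compound and IL-17A/A. Reporter line: HEK 293 expressing IL-17RA, IL-17RC and Act1 with NFκB-SEAP; compound top final 10, 1 or 0.3 uM, DMSO 0.1% final.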

The structures appear in SMILES notation. A value given as a limit tells only on which side of the number the result lay.

For the molecule `CCn1nccc1C(=O)N[C@H](C(=O)Nc1ccc([C@H](C)C(=O)N2CC(F)(F)C2)cc1F)C(C1CC1)C1CC1` [Compound 15, N-((S)-1,1-dicyclopropyl-3-((4-((S)-1-(3,3-difluoroazetidin-1-yl)-1-oxopropan-2-yl)-2-fluorophenyl)amino)-3-oxopropan-2-yl)-1-ethyl-1H-pyrazole-5-carboxamide], the IC50 was 100 to 1000 nM.
As for `CC(C)n1nccc1C(=O)N[C@H](C(=O)Nc1ccc([C@H](C)C(=O)NC2CC2)cc1F)C(C1CC1)C1CC1` [Compound 16, N-((S)-1,1-dicyclopropyl-3-((4-((S)-1-(cyclopropylamino)-1-oxopropan-2-yl)-2-fluorophenyl)amino)-3-oxopropan-2-yl)-1-isopropyl-1H-pyrazole-5-carboxamide], the half-maximal inhibitory concentration (IC50) is greater than 1000 nM.
The same measure for `CC(C)n1nccc1C(=O)N[C@H](C(=O)Nc1ccc([C@H](C)C(=O)NCC(F)F)cc1F)C(C1CC1)C1CC1` [Compound 17, N-((S)-1,1-dicyclopropyl-3-((4-((S)-1-((2,2-difluoroethyl)amino)-1-oxopropan-2-yl)-2-fluorophenyl)amino)-3-oxopropan-2-yl)-1-isopropyl-1H-pyrazole-5-carboxanide]: 100 to 1000 nM; for `CNCCN(CC(F)(F)F)C(=O)[C@@H](C)c1ccc(NC(=O)[C@@H](NC(=O)c2ccnn2C(C)C)C(C2CC2)C2CC2)c(F)c1` [Compound 22, N-((S)-1,1-dicyclopropyl-3-((2-fluoro-4-((S)-1-((2-(methylamino)ethyl)(2,2,2-trifluoroethyl)amino)-1-oxopropan-2-yl)phenyl)amino)-3-oxopropan-2-yl)-1-isopropyl-1H-pyrazole-5-carboxamide]: 100 to 1000 nM; for `[2H]C([2H])([2H])N(CC(F)(F)F)C(=O)[C@@H](C)c1ccc(NC(=O)[C@@H](NC(=O)c2ccnn2C(C)C)C(C2CC2)C2CC2)c(F)c1` [Compound 23, N-((S)-1,1-dicyclopropyl-3-((2-fluoro-4-((S)-1-((methyl-d3)(2,2,2-trifluoroethyl)amino)-1-oxopropan-2-yl)phenyl)amino)-3-oxopropan-2-yl)-1-isopropyl-1H-pyrazole-5-carboxamide]: 100 to 1000 nM.
The same measure for `CC(C)n1nccc1C(=O)N[C@H](C(=O)Nc1ccc([C@H](C)C(=O)N2CCN(CC(F)(F)F)CC2)cc1F)C(C1CC1)C1CC1` [Compound 24, N-((S)-1.1-dicyclopropyl-3-((2-fluoro-4-((S)-1-oxo-1-(4-(2,2,2-trifluoroethyl)piperazin-1-yl)propan-2-yl)phenyl)amino)-3-oxopropan-2-yl)-1-isopropyl-1H-pyrazole-5-carboxamide]: 100 to 1000 nM.
In the case of `CC(C)n1nccc1C(=O)N[C@H](C(=O)Nc1ccc([C@H](C)C(=O)NC2CC2C(F)F)cc1F)C(C1CC1)C1CC1` (stereo partly drawn) [Compound 25, N-((2S)-1.1-dicyclopropyl-3-((4-((2S)-1-((2-(difluoromethyl)cyclopropyl)amino)-1-oxopropan-2-yl)-2-fluorophenyl)amino)-3-oxopropan-2-yl)-1-isopropyl-1H-pyrazole-5-carboxamide] it was 100 to 1000 nM.
`CC(C)n1nccc1C(=O)N[C@H](C(=O)Nc1ccc([C@H](C)C(=O)NC(C2CC2)C(F)(F)F)cc1F)C(C1CC1)C1CC1` (stereo partly drawn) [Compound 26, N-((2S)-1,1-dicyclopropyl-3-((4-((2S)-1-((1-cyclopropyl-2,2,2-trifluoroethyl)amino)-1-oxopropan-2-yl)-2-fluorophenyl)amino)-3-oxopropan-2-yl)-1-isopropyl-1H-pyrazole-5-carboxamide]: the IC50 fell in the range of 100 to 1000 nM.
In the case of `CC(C)n1nccc1C(=O)N[C@H](C(=O)Nc1ccc([C@H](C)C(=O)NC(Cc2ccccn2)C(F)(F)F)cc1F)C(C1CC1)C1CC1` (stereo partly drawn) [Compound 27, N-((2S)-1,1-dicyclopropyl-3-((2-fluoro-4-((2S)-1-oxo-1-((1,1,1-trifluoro-3-(pyridin-2-yl)propan-2-yl)amino)propan-2-yl)phenyl)amino)-3-oxopropan-2-yl)-1-isopropyl-1H-pyrazole-5-carboxamide] it was greater than 1000 nM.
In the case of `CC(C)n1nccc1C(=O)N[C@H](C(=O)Nc1ccc([C@H](C)C(=O)N2CCC(F)(F)C2)cc1F)C(C1CC1)C1CC1` [Compound 30], the IC50 fell in the range of 100 to 1000 nM.
On to `CC(C)n1nccc1C(=O)N[C@H](C(=O)Nc1ccc([C@H](C)C(=O)N2C[C@@H](O)[C@@H](F)C2)cc1F)C(C1CC1)C1CC1` [Compound 31, N-((S)-1.1-dicyclopropyl-3-((2-fluoro-4-((S)-1-((3S,4R)-3-fluoro-4-hydroxypyrrolidin-1-yl)-1-oxopropan-2-yl)phenyl)amino)-3-oxopropan-2-yl)-1-isopropyl-1H-pyrazole-5-carboxamide], for which the IC50 was greater than 1000 nM.
In the case of `CC(C)n1nccc1C(=O)N[C@H](C(=O)Nc1ccc([C@H](C)C(=O)NCC(N(C)C)C(F)(F)F)cc1F)C(C1CC1)C1CC1` (stereo partly drawn) [Compound 32, N-((2S)-1.1-dicyclopropyl-3-((4-((2S)-1-((2-(dimethylamino)-3,3,3-trifluoropropyl)amino)-1-oxopropan-2-yl)-2-fluorophenyl)amino)-3-oxopropan-2-yl)-1-isopropyl-1H-pyrazole-5-carboxamide], the IC50 was greater than 1000 nM.
Regarding `CC(C)n1nccc1C(=O)N[C@H](C(=O)Nc1ccc([C@H](C)C(=O)N2CC(F)(CO)C2)cc1F)C(C1CC1)C1CC1` [Compound 33, N-((S)-1,1-dicyclopropyl-3-((2-fluoro-4-((S)-1-(3-fluoro-3-(hydroxymethyl)azetidin-1-yl)-1-oxopropan-2-yl)phenyl)amino)-3-oxopropan-2-yl)-1-isopropyl-1H-pyrazole-5-carboxamide], the IC50 is greater than 1000 nM.
In the case of `CC(C)n1nccc1C(=O)N[C@H](C(=O)Nc1ccc([C@H](C)C(=O)NCCF)cc1F)C(C1CC1)C1CC1` [Compound 34, N-((S)-1,1-dicyclopropyl-3-((2-fluoro-4-((S)-1-((2-fluoroethyl)amino)-1-oxopropan-2-yl)phenyl)amino)-3-oxopropan-2-yl)-1-isopropyl-1H-pyrazole-5-carboxamide] it was 100 to 1000 nM.
In the case of `CC(C)n1nccc1C(=O)N[C@H](C(=O)Nc1ccc([C@H](C)C(=O)NCC(F)(F)CNC(=O)OC(C)(C)C)cc1F)C(C1CC1)C1CC1` [Compound 35, tert-butyl (3-((S)-2-(4-((S)-3,3-dicyclopropyl-2-(1-isopropyl-1H-pyrazole-5-carboxamido)propanamido)-3-fluorophenyl)propanamido)-2,2-difluoropropyl)carbamate] it was greater than 1000 nM; in that of `CC(C)n1nccc1C(=O)N[C@H](C(=O)Nc1ccc([C@H](C)C(=O)NCc2ccccc2C(F)(F)F)cc1F)C(C1CC1)C1CC1` [Compound 36, N-((S)-1.1-dicyclopropyl-3-((2-fluoro-4-((S)-1-oxo-1-((2-(trifluoromethyl)benzyl)amino)propan-2-yl)phenyl)amino)-3-oxopropan-2-yl)-1-isopropyl-1H-pyrazole-5-carboxamide], greater than 1000 nM.
Take `CC(C)n1nccc1C(=O)N[C@H](C(=O)Nc1ccc([C@H](C)C(=O)N2CC3(C2)CC(F)(F)C3)cc1F)C(C1CC1)C1CC1` [Compound 37]: the IC50 was greater than 1000 nM.
In the case of `CC(C)n1nccc1C(=O)N[C@H](C(=O)Nc1ccc([C@H](C)C(=O)N2C[C@H](F)[C@@H](F)C2)cc1F)C(C1CC1)C1CC1` [Compound 38, N-((S)-1,1-dicyclopropyl-3-((4-((S)-1-((3S,4S)-3,4-difluoropyrrolidin-1-yl)-1-oxopropan-2-yl)-2-fluorophenyl)amino)-3-oxopropan-2-yl)-1-isopropyl-1H-pyrazole-5-carboxamide] it was 100 to 1000 nM; in that of `CC(C)n1nccc1C(=O)N[C@H](C(=O)Nc1ccc([C@H](C)C(=O)N2CCN(C(=O)OC(C)(C)C)CC2C(F)(F)F)cc1F)C(C1CC1)C1CC1` (stereo partly drawn) [Compound 39, tert-butyl 4-((S)-2-(4-((S)-3,3-dicyclopropyl-2-(1-isopropyl-1H-pyrazole-5-carboxamido)propanamido)-3-fluorophenyl)propanoyl)-3-(trifluoromethyl)piperazine-1-carboxylate], greater than 1000 nM.
In the case of `CC(C)n1nccc1C(=O)N[C@H](C(=O)Nc1ccc([C@H](C)C(=O)N2C[C@@H](F)[C@@H](F)C2)cc1F)C(C1CC1)C1CC1` [Compound 40, N-((S)-1,1-dicyclopropyl-3-((4-((S)-1-((3S,4R)-3,4-difluoropyrrolidin-1-yl)-1-oxopropan-2-yl)-2-fluorophenyl)amino)-3-oxopropan-2-yl)-1-isopropyl-1H-pyrazole-5-carboxamide] it was 100 to 1000 nM; in that of `CC(C)n1nccc1C(=O)N[C@H](C(=O)Nc1ccc([C@H](C)C(=O)NC(c2ccccn2)C(F)(F)F)cc1F)C(C1CC1)C1CC1` (stereo partly drawn) [Compound 41, N-((2S)-1,1-dicyclopropyl-3-((2-fluoro-4-((2S)-1-oxo-1-((2,2,2-trifluoro-1-(pyridin-2-yl)ethyl)amino)propan-2-yl)phenyl)amino)-3-oxopropan-2-yl)-1-isopropyl-1 H-pyrazole-5-carboxamide], 100 to 1000 nM.
The same measure for `CC(C)n1nccc1C(=O)N[C@H](C(=O)Nc1ccc([C@H](C)C(=O)N(CC(F)(F)F)CC(F)(F)F)cc1F)C(C1CC1)C1CC1` [Compound 42, N-((S)-1-((4-((S)-1-(bis(2,2,2-trifluoroethyl)amino)-1-oxopropan-2-yl)-2-fluorophenyl)amino)-3,3-dicyclopropyl-1-oxopropan-2-yl)-1-isopropyl-1H-pyrazole-5-carboxamide]: 100 to 1000 nM.

A word on the IC50: it is the concentration that gives 50% inhibition.

Source of the values: patent US20240376056A1, “PHENYL ACETAMIDE BASED IL-17A MODULATORS AND USES THEREOF” (DiCE Alpha, Inc., priority 2021, published 2024).
